Test results published in paper PMC7782499, “Progerinin, an optimized progerin-lamin A binding inhibitor, ameliorates premature senescence phenotypes of Hutchinson-Gilford progeria syndrome” (Communications Biology, 2021).
“And” between values parts separate entries of the source, which are not always exact repeats. Equal entries are not always repeated.

Legend:
[1] = tested on: normal fibroblasts and HGPS cells; experiment: Long-term treatment cell viability (MTT assay) in normal fibroblasts and HGPS cells; assay type: cell-based
Procedure: To determine the cellular viability, cells were treated with lonafarnib or SLC-D011 for 2 weeks. For MTT assay, cells were incubated with 0.5 mg/ml of 3-(4,5-dimethythiazol-2-yl)-2,5-diphenyl tetrazolium bromide (MTT) solution for 6 hr at 37 °C. After removing MTT solution, the precipitated materials were dissolved in […] DMSO and quantified by measuring the absorbance at 540 nm.
Fig. S12. […] A. SLC-D011, compar ed to lonafarnib, reduces exogenous progerin expression in HEK293 cells. B. Long- t e r m treatment (treated with 2μM ever y ot her day for 2 weeks) with lonafarnib or SLC-D011 was performed for normal fibroblasts and HGPS cells. […]
to determine the cellular viability after treatment with lonafarnib or SLC-D011 (n = 3 independent experiment; two-tailed Student’s t -test), **p < 0.001, *p < 0.05, N.S: not significant. […]

HGPS cells = experiment: Nuclear deformation counting in HGPS cells; assay type: cell-based, human; parameters: key to Nuclear deformation (rate): fraction of nuclear-deformed cells, relative to DMSO-treated cells; conditions: for Nuclear deformation (rate): 7 days, normalized to DMSO-treated cells; for Nuclear deformation: AG03198
Procedure: Fig. 1 SLC-D011 ameliorates premature aging features of HGPS. A. HEK293 cells were transiently transfected with expression vector encoding wild-type lamin A (WT-LA), lamin A-C661A (LA-C661A), progerin, or progerin-C611A. LA-C661A or progerin-C611A with point mutation in CaaX motif was predicted to be lack of farnesylation, […] that of authentic WT-LA or progerin. GFP-conjugated empty expression vector was used as a negative control. Cells were visualized at 24 h after transfection. B Transient transfection of HEK293 cells with expression vector encoding progerin or […] leads to reduced expression of H3K9me3 (n = 3 independent experiments; two-tailed Student’s t test). C. JH4 derivatives (JH010 and SLC-D011(D011)) inhibit lamin A and progerin interaction. For binding inhibition assay, bead-conjugated lamin A (GST-LA) was incubated with HEK293 cells, transiently transfected with GFP-progerin (PG), and treated with indicated chemicals. Actin was used as a loading control. PPT, co-precipitated materials with recombinant proteins; Sup supernatant. 5 μM of each chemical was used for binding assay. […] H3K9me3 reduction is a well-known marker for premature aged cells. Thus, H3K9me3 expression was evaluated by immunostaining. […] E SLC-D011 obviously suppresses progerin expression. For progerin expression analysis, each chemical was used to treat HGPS cells (AG03198, Coriell Cell Repositories) for 7 days. […] F SLC-D011 reduces the expression of progerin in other HGPS cells (AG11513 and AG11498, Coriell Cell Repositories). Treatment with SLC-D011 (2 μM) for 7 days reduced the expression of progerin and p16/INK4A but induced the expression of H3K9me3. […] G JH4, JH010, and SLC-D011 promote cell proliferation. Cell viability was determined by MTT assay after incubation with chemicals for 7 days (n = 3 independent experiments; two-tailed Student’s t test). H JH4, JH010, and SLC-D011 show similar activity for ameliorating nuclear deformation. After incubation with chemicals for 7 days, cells were stained with progerin and H3K9me3 antibodies (n = 3 independent experiment; two-tailed Student’s t test), **p < 0.001. Data are reported as mean ± SD. “Con” means Dimethyl sulfoxide (DMSO)-treated control. The data are normalized to DMSO-treated cells.
For nuclear deformation cell counting, immunofluorescence staining was performed with lamin A or progerin antibodies. After staining, abnormal nuclear membrane was counted in randomly selected fields and expressed as percentages or actual numbers of total cells counted. Abnormalities of nuclear membrane were determined based on the following: (1) lamin A/C or progerin lining was extruded or engulfed, (2) having at least one bleb, and (3) irregular contour. Counting of cells with nuclear deformation was performed by three independent observers who were blinded to chemical treatment group. To analyze histone H3K9me3 intensity or expression, images were quantified using “color histogram” function of Image J software (National Institute of Health, NIH). Fluorescence intensities were subtracted by background signals.

With `CC1(C)Oc2cc3oc(=O)ccc3cc2C[C@@H]1OC/C=C/c1ccccc1` [SLC-D011] the Cell viability ([1]; AG03198, Ave) was 1.64 ratio, the Cell viability ([1]; AG03198, individual replicate) was 1.6383 ratio and 1.687 ratio and 1.593 ratio and the Cell viability ([1]; AG11513, Ave) was 1.362 ratio. For the same compound, the Cell viability ([1]; AG11513, individual replicate) was 1.362 ratio and 1.373 ratio and 1.352 ratio, the Cell viability ([1]; N9, Ave) was 2.552 ratio and the Cell viability ([1]; N9, individual replicate) was 2.559 ratio and 2.546 ratio and 2.551 ratio. For the same compound, the “Nuclear deformation (rate)” value (HGPS cells; AG03198, 2uM) was 0.4839 and 0.6786 and 0.4545 and 0.4706 and 0.5, the “Nuclear deformation (rate)” value (HGPS cells; AG03198, 2uM, mean) was 0.5146 and the “Nuclear deformation (rate)” value (HGPS cells; AG03198, 5uM) was 0.4194 and 0.4286 and 0.303 and 0.2353 and 0.3667 and 0.2941. For the same compound, the “Nuclear deformation (rate)” value (HGPS cells; AG03198, 5uM, mean) was 0.3412, the Nuclear deformation (HGPS cells; 0.1μM, Ave) was 36.4% and the Nuclear deformation (HGPS cells; 0.1μM, individual replicate) was 35% and 37% and 40% and 36% and 34%. For the same compound, the Nuclear deformation (HGPS cells; 0.2μM, Ave) was 33.2%, the Nuclear deformation (HGPS cells; 0.2μM, individual replicate) was 33% and 34% and 30% and 36% and the Nuclear deformation (HGPS cells; 0.5μM, Ave) was 25.8%. For the same compound, the Nuclear deformation (HGPS cells; 0.5μM, individual replicate) was 29% and 28% and 27% and 19% and 26%, the Nuclear deformation (HGPS cells; 1μM, Ave) was 21.4% and the Nuclear deformation (HGPS cells; 1μM, individual replicate) was 23% and 20% and 22% and 19%.

`NC(=O)N1CCC(CC(=O)N2CCC([C@H]3c4ncc(Br)cc4CCc4cc(Cl)cc(Br)c43)CC2)CC1` [lonafarnib, reference compound] was tested, and the “Cell death on long-term treatment” value ([1]; 2μM every other day for 2 weeks) was “induced cell death in both normal fibroblasts and HGPS cells”, the Cell viability ([1]; AG03198, Ave) was 0.5027 ratio and the Cell viability ([1]; AG03198, individual replicate) was 0.6483 ratio and 0.3112 ratio and 0.5484 ratio. The Cell viability ([1]; AG11513, Ave) was 0.692 ratio, the Cell viability ([1]; AG11513, individual replicate) was 0.6982 ratio and 0.6988 ratio and 0.6791 ratio and the Cell viability ([1]; N9, Ave) was 1.642 ratio. The Cell viability ([1]; N9, individual replicate) was 1.689 ratio and 1.546 ratio and 1.691 ratio and the Nuclear shape (HGPS cells; HGPS cells) was “induced donut-shaped nuclei”.

`CC1(C)Oc2cc3oc(=O)ccc3cc2CC1OC(=O)C=Cc1cccnc1` (stereo not drawn) [JH4] was tested, and the “Nuclear deformation (rate)” value (HGPS cells; AG03198, 2uM) was 0.7742 and 0.8571 and 0.5758 and 0.6176 and 0.8 and 0.6765, the “Nuclear deformation (rate)” value (HGPS cells; AG03198, 2uM, mean) was 0.7169 and the “Nuclear deformation (rate)” value (HGPS cells; AG03198, 5uM) was 0.5161 and 0.5357 and 0.5455 and 0.4706 and 0.5667 and 0.5294. For the same compound, the “Nuclear deformation (rate)” value (HGPS cells; AG03198, 5uM, mean) was 0.5273.
